# Source: the supplement of paper PMC10307832
# Key:
# Assay in all cases: relative viability (nuclei count vs DMSO), 5 days (fraction); higher = more cells survive
# [1] = system: A-427
# Summary of the method: (§1)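 Cells from lung cancer lines were seeded into 1536-well plates and, one day later, dosed by pin tool. Treatments were either a single drug or a fixed dose of an anchor drug with five library-drug doses (not always all listed) in √10 steps. After 5 days, nuclei were stained in a one-step fixation (final 0.05% Triton X-100, 1% formaldehyde, 1 ug/ml Hoechst) and counted on 4× images, and relative viability is the treated-to-vehicle nuclei ratio, as the median of duplicate plates.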
# [2] = system: ABC-1
# Summary of the method: as §1
# [3] = system: EMC-BAC-2
# Summary of the method: as §1
# [4] = system: HARA
# Summary of the method: as §1
# [5] = system: HOP-62
# Summary of the method: as §1
# [6] = system: LK-2
# Summary of the method: as §1
# [7] = system: LXF-289
# Summary of the method: as §1
# [8] = system: NCI-H1792
# Summary of the method: as §1
# [9] = system: NCI-H1944
# Summary of the method: as §1
# [10] = system: NCI-H1993
# Summary of the method: as §1
# [11] = system: NCI-H2009
# Summary of the method: as §1
# [12] = system: NCI-H2228
# Summary of the method: as §1
# [13] = system: NCI-H3122
# Summary of the method: as §1
# [14] = system: NCI-H322M
# Summary of the method: as §1
# [15] = system: NCI-H596
# Summary of the method: as §1
# [16] = system: NCI-H727
# Summary of the method: as §1
# [17] = system: PC-3 [JPC-3]
# Summary of the method: as §1
# [18] = system: SK-MES-1
# Summary of the method: as §1
# [19] = system: SW 1573
# Summary of the method: as §1
smiles,measurement,setting,value
Nc1ccn([C@@H]2O[C@H](CO)[C@@H](O)[C@@H]2O)c(=O)n1 [Cytarabine] + C[C@]1(O)C[C@@H](c2nc(-c3ccc4ccc(-c5ccccc5)nc4c3)c3c(N)nccn32)C1 [Linsitinib] (partner 1 µM),relative viability,[1]; first compound 0.005 µM,0.909
same,relative viability,[1]; first compound 0.01581 µM,0.654
same,relative viability,[1]; first compound 0.05 µM,0.342
same,relative viability,[1]; first compound 0.1581 µM,0.181
same,relative viability,[1]; first compound 0.5 µM,0.196
same,relative viability,[2]; first compound 0.005 µM,0.699
same,relative viability,[2]; first compound 0.01581 µM,0.99
same,relative viability,[2]; first compound 0.05 µM,0.909
same,relative viability,[2]; first compound 0.1581 µM,0.71
same,relative viability,[2]; first compound 0.5 µM,0.487
same,relative viability,[3]; first compound 0.005 µM,0.695
same,relative viability,[3]; first compound 0.01581 µM,0.751
same,relative viability,[3]; first compound 0.05 µM,0.688
same,relative viability,[3]; first compound 0.1581 µM,0.295
same,relative viability,[3]; first compound 0.5 µM,0.247
same,relative viability,[4]; first compound 0.005 µM,0.851
same,relative viability,[4]; first compound 0.01581 µM,0.608
same,relative viability,[4]; first compound 0.05 µM,0.396
same,relative viability,[4]; first compound 0.1581 µM,0.174
same,relative viability,[4]; first compound 0.5 µM,0.0936
same,relative viability,[5]; first compound 0.005 µM,0.781
same,relative viability,[5]; first compound 0.01581 µM,0.666
same,relative viability,[5]; first compound 0.05 µM,0.257
same,relative viability,[5]; first compound 0.1581 µM,0.124
same,relative viability,[5]; first compound 0.5 µM,0.0827
same,relative viability,[6]; first compound 0.005 µM,0.494
same,relative viability,[6]; first compound 0.01581 µM,0.58
same,relative viability,[6]; first compound 0.05 µM,0.247
same,relative viability,[6]; first compound 0.1581 µM,0.215
same,relative viability,[6]; first compound 0.5 µM,0.162
same,relative viability,[7]; first compound 0.005 µM,0.859
same,relative viability,[7]; first compound 0.01581 µM,0.945
same,relative viability,[7]; first compound 0.05 µM,0.786
same,relative viability,[7]; first compound 0.1581 µM,0.493
same,relative viability,[7]; first compound 0.5 µM,0.279
same,relative viability,[8]; first compound 0.005 µM,0.46
same,relative viability,[8]; first compound 0.01581 µM,0.492
same,relative viability,[8]; first compound 0.05 µM,0.34
same,relative viability,[8]; first compound 0.1581 µM,0.348
same,relative viability,[8]; first compound 0.5 µM,0.283
same,relative viability,[9]; first compound 0.005 µM,1.1
same,relative viability,[9]; first compound 0.01581 µM,0.492
same,relative viability,[9]; first compound 0.05 µM,0.424
same,relative viability,[9]; first compound 0.1581 µM,0.216
same,relative viability,[9]; first compound 0.5 µM,0.195
same,relative viability,[10]; first compound 0.005 µM,0.703
same,relative viability,[10]; first compound 0.01581 µM,0.795
same,relative viability,[10]; first compound 0.05 µM,0.672
same,relative viability,[10]; first compound 0.1581 µM,0.539
same,relative viability,[10]; first compound 0.5 µM,0.471
same,relative viability,[11]; first compound 0.005 µM,1.11
same,relative viability,[11]; first compound 0.01581 µM,1.12
same,relative viability,[11]; first compound 0.05 µM,1.19
same,relative viability,[11]; first compound 0.1581 µM,0.83
same,relative viability,[11]; first compound 0.5 µM,0.411
same,relative viability,[12]; first compound 0.005 µM,0.675
same,relative viability,[12]; first compound 0.01581 µM,0.546
same,relative viability,[12]; first compound 0.05 µM,0.492
same,relative viability,[12]; first compound 0.1581 µM,0.152
same,relative viability,[12]; first compound 0.5 µM,0.0885
same,relative viability,[13]; first compound 0.005 µM,0.995
same,relative viability,[13]; first compound 0.01581 µM,0.893
same,relative viability,[13]; first compound 0.05 µM,0.948
same,relative viability,[13]; first compound 0.1581 µM,0.72
same,relative viability,[13]; first compound 0.5 µM,0.476
same,relative viability,[14]; first compound 0.005 µM,0.822
same,relative viability,[14]; first compound 0.01581 µM,0.707
same,relative viability,[14]; first compound 0.05 µM,0.628
same,relative viability,[14]; first compound 0.1581 µM,0.464
same,relative viability,[14]; first compound 0.5 µM,0.43
same,relative viability,[15]; first compound 0.005 µM,1.03
same,relative viability,[15]; first compound 0.01581 µM,0.857
same,relative viability,[15]; first compound 0.05 µM,0.763
same,relative viability,[15]; first compound 0.1581 µM,0.658
same,relative viability,[15]; first compound 0.5 µM,0.628
same,relative viability,[16]; first compound 0.005 µM,0.251
same,relative viability,[16]; first compound 0.01581 µM,0.254
same,relative viability,[16]; first compound 0.05 µM,0.318
same,relative viability,[16]; first compound 0.1581 µM,0.19
same,relative viability,[16]; first compound 0.5 µM,0.215
same,relative viability,[17]; first compound 0.005 µM,0.889
same,relative viability,[17]; first compound 0.01581 µM,0.903
same,relative viability,[17]; first compound 0.05 µM,0.866
same,relative viability,[17]; first compound 0.1581 µM,0.691
same,relative viability,[17]; first compound 0.5 µM,0.65
same,relative viability,[18]; first compound 0.005 µM,0.905
same,relative viability,[18]; first compound 0.01581 µM,0.82
same,relative viability,[18]; first compound 0.05 µM,0.368
same,relative viability,[18]; first compound 0.1581 µM,0.252
same,relative viability,[18]; first compound 0.5 µM,0.255
same,relative viability,[19]; first compound 0.005 µM,0.831
same,relative viability,[19]; first compound 0.01581 µM,0.664
same,relative viability,[19]; first compound 0.05 µM,0.621
same,relative viability,[19]; first compound 0.1581 µM,0.369
same,relative viability,[19]; first compound 0.5 µM,0.149
CC(=O)O[C@@]12CO[C@@H]1C[C@H](O)[C@@]1(C)C(=O)[C@H](O)C3=C(C)[C@@H](OC(=O)[C@H](O)[C@@H](NC(=O)OC(C)(C)C)c4ccccc4)C[C@@](O)([C@@H](OC(=O)c4ccccc4)[C@H]21)C3(C)C [Docetaxel] + CC(C)C[C@H](NC(=O)[C@H](Cc1ccccc1)NC(=O)c1cnccn1)B(O)O [Bortezomib] (partner 0.002 µM),relative viability,[1]; first compound 0.0002 µM,0.949
same,relative viability,[1]; first compound 0.000632 µM,0.964
same,relative viability,[1]; first compound 0.002 µM,0.656
same,relative viability,[1]; first compound 0.006325 µM,0.275
same,relative viability,[1]; first compound 0.02 µM,0.141
same,relative viability,[2]; first compound 0.0002 µM,0.298
same,relative viability,[2]; first compound 0.000632 µM,0.334
same,relative viability,[2]; first compound 0.002 µM,0.306
same,relative viability,[2]; first compound 0.006325 µM,0.247
same,relative viability,[2]; first compound 0.02 µM,0.278
same,relative viability,[3]; first compound 0.0002 µM,0.963
same,relative viability,[3]; first compound 0.000632 µM,0.875
same,relative viability,[3]; first compound 0.002 µM,0.573
same,relative viability,[3]; first compound 0.006325 µM,0.306
same,relative viability,[3]; first compound 0.02 µM,0.206
same,relative viability,[4]; first compound 0.0002 µM,1.04
same,relative viability,[4]; first compound 0.000632 µM,0.372
same,relative viability,[4]; first compound 0.002 µM,0.376
same,relative viability,[4]; first compound 0.006325 µM,0.118
same,relative viability,[4]; first compound 0.02 µM,0.0895
same,relative viability,[5]; first compound 0.0002 µM,0.726
same,relative viability,[5]; first compound 0.000632 µM,0.828
same,relative viability,[5]; first compound 0.02 µM,0.128
same,relative viability,[7]; first compound 0.0002 µM,0.995
same,relative viability,[7]; first compound 0.000632 µM,0.81
same,relative viability,[7]; first compound 0.002 µM,0.594
same,relative viability,[7]; first compound 0.006325 µM,0.133
same,relative viability,[7]; first compound 0.02 µM,0.0991
same,relative viability,[8]; first compound 0.0002 µM,0.951
same,relative viability,[8]; first compound 0.000632 µM,0.82
same,relative viability,[8]; first compound 0.002 µM,0.6
same,relative viability,[8]; first compound 0.02 µM,0.12
same,relative viability,[10]; first compound 0.0002 µM,0.961
same,relative viability,[10]; first compound 0.000632 µM,1.06
same,relative viability,[10]; first compound 0.002 µM,0.798
same,relative viability,[10]; first compound 0.006325 µM,0.608
same,relative viability,[10]; first compound 0.02 µM,0.399
same,relative viability,[11]; first compound 0.0002 µM,0.99
same,relative viability,[11]; first compound 0.000632 µM,1.01
same,relative viability,[11]; first compound 0.002 µM,0.914
same,relative viability,[11]; first compound 0.006325 µM,0.263
same,relative viability,[11]; first compound 0.02 µM,0.178
same,relative viability,[12]; first compound 0.0002 µM,0.617
same,relative viability,[12]; first compound 0.000632 µM,0.212
same,relative viability,[12]; first compound 0.002 µM,0.149
same,relative viability,[12]; first compound 0.006325 µM,0.243
same,relative viability,[12]; first compound 0.02 µM,0.152
same,relative viability,[13]; first compound 0.0002 µM,1.04
same,relative viability,[13]; first compound 0.000632 µM,0.907
same,relative viability,[13]; first compound 0.002 µM,0.864
same,relative viability,[13]; first compound 0.006325 µM,0.368
same,relative viability,[13]; first compound 0.02 µM,0.227
same,relative viability,[14]; first compound 0.0002 µM,1.11
same,relative viability,[14]; first compound 0.000632 µM,1.22
same,relative viability,[14]; first compound 0.002 µM,1.05
same,relative viability,[14]; first compound 0.006325 µM,0.602
same,relative viability,[14]; first compound 0.02 µM,0.469
same,relative viability,[15]; first compound 0.0002 µM,0.81
same,relative viability,[15]; first compound 0.000632 µM,1.15
same,relative viability,[15]; first compound 0.002 µM,0.812
same,relative viability,[15]; first compound 0.006325 µM,0.723
same,relative viability,[15]; first compound 0.02 µM,0.423
same,relative viability,[16]; first compound 0.0002 µM,0.795
same,relative viability,[16]; first compound 0.000632 µM,0.855
same,relative viability,[16]; first compound 0.002 µM,0.474
same,relative viability,[16]; first compound 0.006325 µM,0.473
same,relative viability,[16]; first compound 0.02 µM,0.483
same,relative viability,[17]; first compound 0.0002 µM,0.794
same,relative viability,[17]; first compound 0.000632 µM,0.959
same,relative viability,[17]; first compound 0.002 µM,0.735
same,relative viability,[17]; first compound 0.006325 µM,0.263
same,relative viability,[17]; first compound 0.02 µM,0.193
same,relative viability,[19]; first compound 0.0002 µM,1.05
same,relative viability,[19]; first compound 0.000632 µM,0.364
same,relative viability,[19]; first compound 0.002 µM,0.265
same,relative viability,[19]; first compound 0.006325 µM,0.195
same,relative viability,[19]; first compound 0.02 µM,0.201
